# Experiments:
# 143B [1] = assay: Induction of cell cycle arrest in human 143B cells assessed as accumulation at G1 phase at 5 uM incubated for 48 hrs by propidium iodide staining based flow cytometry (reference value: 66.62 %); type: functional
# [2] = Toxicity in BALB/c nude mouse xenografted with human 143B cells assessed as necrosis in heart at 5 to 20 mg/kg, po administered once daily for 28 consecutive days by hematoxylin-eosin staining based assay; type: organism-based; conditions: in vivo, 672 h, dose 5-20 mg/kg, time 28 day
# [3] = Toxicity in BALB/c nude mouse xenografted with human 143B cells assessed as kidney edema at 5 to 20 mg/kg, po administered once daily for 28 consecutive days by hematoxylin-eosin staining based assay; type: organism-based; conditions: in vivo, 672 h, dose 5-20 mg/kg, time 28 day
# [4] = Toxicity in BALB/c nude mouse xenografted with human 143B cells assessed as heart edema at 5 to 20 mg/kg, po administered once daily for 28 consecutive days by hematoxylin-eosin staining based assay; type: organism-based; conditions: in vivo, 672 h, dose 5-20 mg/kg, time 28 day
# 143B [5] = assay: Antiproliferative activity against human 143B cells assessed as inhibition of cell proliferation incubated for 72 hrs by MTT assay; type: functional, cell-based
# [6] = biological target: T1, Glutathione S-transferase Mu 2 (Homo sapiens, UniProt P28161); assay: Inhibition of GSTM2-2 (unknown origin) using reduced GSH and CDNB as substrate incubated for 10 mins followed by substrate addition by microplate reader analysis
# T1 sequence (P28161 whole entry): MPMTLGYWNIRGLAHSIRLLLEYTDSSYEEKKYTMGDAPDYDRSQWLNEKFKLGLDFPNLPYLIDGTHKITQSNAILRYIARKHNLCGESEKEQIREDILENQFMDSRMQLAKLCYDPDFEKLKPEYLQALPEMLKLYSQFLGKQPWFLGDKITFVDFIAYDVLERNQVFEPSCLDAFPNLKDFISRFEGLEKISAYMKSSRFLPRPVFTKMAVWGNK
# [7] = MRT (0 to t) in Sprague-Dawley rat at 80 mg/kg, po administered as single dose measured upto 48 hrs by LC-MS/MS analysis; conditions: in vivo
# in vivo [8] = conditions: Sprague-Dawley, rat, po, 80 mg/kg
# Description: AUC (0 to t) in Sprague-Dawley rat at 80 mg/kg, po administered as single dose measured upto 48 hrs by LC-MS/MS analysis
# [9] = Toxicity in BALB/c nude mouse xenografted with human 143B cells assessed as cellular inflammation in kidney at 5 to 20 mg/kg, po administered once daily for 28 consecutive days by hematoxylin-eosin staining based assay; type: organism-based; conditions: in vivo, 672 h, dose 5-20 mg/kg, time 28 day
# in vivo [10] = conditions: Sprague-Dawley, rat, po, 80 mg/kg; remark: listed apart in the source
# Description: Terminal half life in Sprague-Dawley rat at 80 mg/kg, po administered as single dose measured upto 48 hrs by LC-MS/MS analysis
# [11] = Toxicity in BALB/c nude mouse xenografted with human 143B cells assessed as body weight loss at 5 mg/kg, po administered once daily for 28 consecutive days and measured every 3 days; type: organism-based; conditions: in vivo, 672 h, time 28 day
# 143B [12] = assay: Induction of apoptosis in human 143B cells assessed as apoptotic cells at 5 uM incubated for 24 hrs by Annexin V-FITC/PI double staining based flow cytometric analysis (reference value: 3.9%); type: functional
# 143B [13] = assay: Induction of cell cycle arrest in human 143B cells assessed as accumulation at S phase at 2.5 uM incubated for 48 hrs by propidium iodide staining based flow cytometry (reference value: 32.03 %); type: functional
# 143B [14] = assay: Antitumor activity against human 143B cells xenografted in BALB/c nude mouse assessed as tumor growth inhibition at 20 mg/kg, po administered once daily for 28 consecutive days relative to control; type: functional; conditions: 672 h, time 28 day, read-out: TGI
# 143B [15] = assay: Induction of cell cycle arrest in human 143B cells assessed as accumulation at G1 phase at 2.5 uM incubated for 48 hrs by propidium iodide staining based flow cytometry (reference value: 66.62 %); type: functional
# [16] = Volume of distribution in Sprague-Dawley rat at 80 mg/kg, po administered as single dose measured upto 48 hrs by LC-MS/MS analysis; conditions: in vivo
# 143B [17] = assay: Induction of cell cycle arrest in human 143B cells assessed as accumulation at G2 phase at 5 uM incubated for 48 hrs by propidium iodide staining based flow cytometry (reference value: 1.35 %); type: functional
# [18] = Water solubility of the compound measured by UV-Visible spectral analysis; type: physicochemical; conditions: water; read-out: solubility
# HUVEC = assay: Cytotoxicity against HUVEC assessed as reduction in cell viability incubated for 72 hrs by MTT assay; type: cell-based; conditions: Homo sapiens
# [19] = Toxicity in BALB/c nude mouse xenografted with human 143B cells assessed as necrosis in kidney at 5 to 20 mg/kg, po administered once daily for 28 consecutive days by hematoxylin-eosin staining based assay; type: organism-based; conditions: in vivo, 672 h, dose 5-20 mg/kg, time 28 day
# [20] = Toxicity in BALB/c nude mouse xenografted with human 143B cells assessed as liver edema at 5 to 20 mg/kg, po administered once daily for 28 consecutive days by hematoxylin-eosin staining based assay; type: organism-based; conditions: in vivo, 672 h, dose 5-20 mg/kg, time 28 day
# [21] = Toxicity in BALB/c nude mouse xenografted with human 143B cells assessed as lung edema at 5 to 20 mg/kg, po administered once daily for 28 consecutive days by hematoxylin-eosin staining based assay; type: organism-based; conditions: in vivo, 672 h, dose 5-20 mg/kg, time 28 day
# liver carboxylesterase = biological target: T2, liver carboxylesterase (Sus scrofa, UniProt Q29550); assay: Stability of the compound assessed as pig liver carboxylesterase-mediated compound hydrolysis at 10 mM measured after 12 hrs by HPLC analysis; type: ADME; conditions: read-out: Drug degradation
# T2 sequence (Q29550 whole entry): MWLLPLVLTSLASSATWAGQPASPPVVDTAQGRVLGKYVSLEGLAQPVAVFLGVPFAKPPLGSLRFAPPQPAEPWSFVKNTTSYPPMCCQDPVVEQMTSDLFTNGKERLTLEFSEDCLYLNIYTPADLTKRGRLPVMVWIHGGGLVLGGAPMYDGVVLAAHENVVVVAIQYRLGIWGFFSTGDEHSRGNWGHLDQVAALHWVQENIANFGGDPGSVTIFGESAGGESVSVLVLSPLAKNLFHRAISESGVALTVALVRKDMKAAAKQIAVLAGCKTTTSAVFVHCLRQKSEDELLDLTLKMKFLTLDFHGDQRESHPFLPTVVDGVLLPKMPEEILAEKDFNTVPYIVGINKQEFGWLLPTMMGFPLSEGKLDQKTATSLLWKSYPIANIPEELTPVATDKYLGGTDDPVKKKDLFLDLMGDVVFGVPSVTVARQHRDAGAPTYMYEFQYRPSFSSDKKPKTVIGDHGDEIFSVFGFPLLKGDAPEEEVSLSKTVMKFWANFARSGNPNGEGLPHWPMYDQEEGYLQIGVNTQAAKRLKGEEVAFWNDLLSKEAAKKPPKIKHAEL
compound,measurement,setting,value
CN(C)CCCNC(=O)CCC(=O)OCCCCCCSc1ccc([N+](=O)[O-])c2nonc12,Activity,143B [1],49.82%
same,Activity,[2],Non-Toxic
same,Activity,[3],Non-Toxic
same,Activity,[4],Non-Toxic
same,IC50,143B [5],1180 nM
same,IC50,[6],90 nM
same,MRT last at 48 h,[7],6.35 h
same,AUC(0-t) at 48 h,in vivo [8],6420 ng·h/mL
same,Activity,[9],Non-Toxic
same,half-life at 48 h,in vivo [10],7.28 h
same,Activity,[11],Non-Toxic
same,Activity,143B [12],74%
same,Activity,143B [13],40.75%
same,inhibition in vivo at 20 mg/kg,143B [14],74.5%
same,Activity,143B [15],49.79%
same,Vd,[16],7.62 L/kg
same,Activity,143B [17],15.24%
same,solubility,[18],9000 µg/mL
same,IC50,HUVEC,1600 nM
same,Activity,[19],Non-Toxic
same,Activity,[20],Non-Toxic
same,Activity,[21],Non-Toxic
same,"metabolised at 12 h, 10000 µM",liver carboxylesterase,33%
